From ChEMBL document CHEMBL1157497, “Theoretical studies on the structure and symmetry of the transmembrane region of glutamatergic GluR5 receptor” (J Med Chem, 2008)

Key:
[1] = Inhibition of NMDA receptor
[2] = target: Glutamate NMDA receptor; GRIN1/GRIN2B (Homo sapiens, UniProt Q05586+Q13224); assay: Antagonist activity at NR1/2B receptor expressed in xenopus laevis at pH 6.9 by two electrode voltage clamp method; assay type: functional
Sequence of Glutamate NMDA receptor; GRIN1/GRIN2B (Q13224 whole entry, other chains not shown): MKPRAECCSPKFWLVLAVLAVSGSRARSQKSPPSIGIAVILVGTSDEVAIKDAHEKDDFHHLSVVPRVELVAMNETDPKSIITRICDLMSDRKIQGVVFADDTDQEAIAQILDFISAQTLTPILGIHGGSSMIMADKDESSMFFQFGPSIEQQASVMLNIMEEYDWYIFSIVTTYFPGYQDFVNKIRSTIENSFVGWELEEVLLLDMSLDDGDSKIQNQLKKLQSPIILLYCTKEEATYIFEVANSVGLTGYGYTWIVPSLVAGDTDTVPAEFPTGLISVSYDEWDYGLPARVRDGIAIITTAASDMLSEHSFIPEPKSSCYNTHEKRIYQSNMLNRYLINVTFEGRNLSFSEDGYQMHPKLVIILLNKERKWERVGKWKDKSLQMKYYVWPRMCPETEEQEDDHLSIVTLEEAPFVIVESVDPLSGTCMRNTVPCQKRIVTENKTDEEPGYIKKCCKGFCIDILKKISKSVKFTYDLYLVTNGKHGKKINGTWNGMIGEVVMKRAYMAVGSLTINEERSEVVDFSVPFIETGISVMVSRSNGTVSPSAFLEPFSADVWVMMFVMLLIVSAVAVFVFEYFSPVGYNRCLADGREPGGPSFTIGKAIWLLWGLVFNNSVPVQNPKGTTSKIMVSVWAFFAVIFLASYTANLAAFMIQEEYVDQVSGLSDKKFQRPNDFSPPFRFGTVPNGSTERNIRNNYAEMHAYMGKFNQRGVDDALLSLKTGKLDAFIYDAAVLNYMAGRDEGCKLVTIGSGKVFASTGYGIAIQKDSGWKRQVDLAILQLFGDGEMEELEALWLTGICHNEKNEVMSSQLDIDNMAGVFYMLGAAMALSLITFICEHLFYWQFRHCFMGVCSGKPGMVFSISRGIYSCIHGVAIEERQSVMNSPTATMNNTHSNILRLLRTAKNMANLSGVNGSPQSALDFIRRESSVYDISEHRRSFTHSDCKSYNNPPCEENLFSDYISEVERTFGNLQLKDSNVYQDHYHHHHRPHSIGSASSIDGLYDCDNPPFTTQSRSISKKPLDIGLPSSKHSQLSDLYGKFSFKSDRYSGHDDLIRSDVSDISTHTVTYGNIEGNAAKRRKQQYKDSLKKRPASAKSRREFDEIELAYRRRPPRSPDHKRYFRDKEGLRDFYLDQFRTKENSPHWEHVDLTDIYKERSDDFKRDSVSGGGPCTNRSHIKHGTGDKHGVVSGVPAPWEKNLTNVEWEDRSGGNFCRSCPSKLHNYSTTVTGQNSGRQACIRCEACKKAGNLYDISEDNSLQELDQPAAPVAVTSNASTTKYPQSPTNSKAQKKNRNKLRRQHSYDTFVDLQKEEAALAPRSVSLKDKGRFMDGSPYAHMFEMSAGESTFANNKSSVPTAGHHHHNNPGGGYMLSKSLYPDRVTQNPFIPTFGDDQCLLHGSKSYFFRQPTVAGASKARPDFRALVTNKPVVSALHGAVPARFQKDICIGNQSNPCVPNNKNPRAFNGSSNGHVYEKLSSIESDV

SMILES | IC50 [1] [nM] | IC50 [2] [nM]
NCCCCCNC1(c2ccccc2)CCCCC1 | 2100 | –
CN1CC[C@@]23CCCC[C@@H]2[C@@H]1Cc1ccc(O)cc13 [DEXTRORPHAN] | – | 246
